Results published in patent US20240254138A1, “TRICYCLIC PYRIMIDINES AS CYCLIN-DEPENDENT KINASE 7 (CDK7) INHIBITORS” (JANSSEN PHARMACEUTICA NV, priority 2021, published 2024).
Like-named read-outs stand apart in the source and are kept apart here.

How the values were obtained:
[1] = system: RNA Polymerase II Serine 5 phosphorylation (Rpb1 CTD, downstream substrate of CDK7) in A549 cells; test: Imaging-based cellular RNA PolII Ser5 phosphorylation assay in A549 cells; assay type: cell-based, human; conditions: wild-type CDK7, RNA PolII Ser5 phosphorylation, averaged over all measurements; for IC50: Homo sapiens, A549, A549 cells, read-out: CDK7_A549 Wild-type CDK7 (pIC50) (converted); for CDK7_A549 Wild-type CDK7 (pIC50): A549 cells
In short: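 IC50 derived by fitting % control (DMSO high, 10 μM reference low) against concentration, with Hill slope. Readout: high-content imaging of phospho-Ser5 Rpb1 CTD antibody staining in fixed, permeabilized A549 cells exposed to compound 3 h after 20 h culture in 1% FBS DMEM.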

[2] = biological target: CDK7/cyclinH/MAT1 trimeric complex (Homo sapiens, UniProt P50613); test: In vitro CDK7 assay, potency of irreversible covalent inhibitors (kinact/KI), coupled PK/LDH ADP readout at 340 nm; conditions: for Ki: CDK7 (20 nM enz.) (KI, μM); for Ki / CDK7 (20 nM enz.) (kinact, s^−1) / CDK7 (20 nM enz.) (kinact/KI, M^−1*s^−1) / CDK7 (20 nM enz.) (kobs/[I], M^−1*s^−1): 20 nM enzyme; for kinact: read-out: CDK7 (20 nM enz.) (kinact, s^−1), 20 nM enzyme
[3] = system: RNA Polymerase II Serine 5 phosphorylation in A549 cells overexpressing CDK7-mutant (C312S); test: Imaging-based cellular RNA PolII Ser5 phosphorylation assay in A549 cells overexpressing CDK7-mutant (C312S); assay type: cell-based, human; conditions: RNA PolII Ser5 phosphorylation, averaged over all measurements; for IC50: Homo sapiens, A549, A549 cells overexpressing CDK7-mutant (C312S), read-out: CDK7_A549 mutant hCDK7(pIC50) (converted); for CDK7_A549 mutant hCDK7(pIC50): A549 cells overexpressing CDK7-mutant (C312S)
In short: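 Readout was automated imaging of anti-phospho-Ser5 Rpb1 CTD immunofluorescence, with IC50 fitted to % control versus concentration. Cells were A549 stably overexpressing non-covalently targetable CDK7 C312S alongside wild-type, exposed to compound 3 h at 37 °C. DMSO and 10 μM reference compound served as controls.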

[4] = read-out: CDK7 (20 nM enz.) (kinact/KI, M^−1*s^−1), 20 nM enzyme
[5] = read-out: CDK7 (20 nM enz.) (kobs/[I], M^−1*s^−1), 20 nM enzyme

Sequence of CDK7/cyclinH/MAT1 trimeric complex (P50613 whole entry): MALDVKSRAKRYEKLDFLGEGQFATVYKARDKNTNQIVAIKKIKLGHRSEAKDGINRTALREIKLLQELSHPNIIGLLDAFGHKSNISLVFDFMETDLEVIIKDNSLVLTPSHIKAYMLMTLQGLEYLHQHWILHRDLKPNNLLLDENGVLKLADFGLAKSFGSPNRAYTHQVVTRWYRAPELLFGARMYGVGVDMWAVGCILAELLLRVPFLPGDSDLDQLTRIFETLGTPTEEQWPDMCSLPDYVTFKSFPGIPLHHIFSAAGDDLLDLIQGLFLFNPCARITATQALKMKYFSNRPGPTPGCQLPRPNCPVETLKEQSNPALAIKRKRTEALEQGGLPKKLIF
Sequence of CDK7/cyclinH/MAT1 trimeric complex (P51946 whole entry partner): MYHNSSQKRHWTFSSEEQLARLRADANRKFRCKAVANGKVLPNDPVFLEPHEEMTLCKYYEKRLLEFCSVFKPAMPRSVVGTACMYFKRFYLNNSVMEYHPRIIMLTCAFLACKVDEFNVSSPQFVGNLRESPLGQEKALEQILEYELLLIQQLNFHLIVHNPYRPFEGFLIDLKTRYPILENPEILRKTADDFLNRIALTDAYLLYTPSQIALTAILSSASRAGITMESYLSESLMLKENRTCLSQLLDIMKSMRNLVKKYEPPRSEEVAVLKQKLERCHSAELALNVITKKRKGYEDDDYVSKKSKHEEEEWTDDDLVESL
Sequence of CDK7/cyclinH/MAT1 trimeric complex (P51948 whole entry partner): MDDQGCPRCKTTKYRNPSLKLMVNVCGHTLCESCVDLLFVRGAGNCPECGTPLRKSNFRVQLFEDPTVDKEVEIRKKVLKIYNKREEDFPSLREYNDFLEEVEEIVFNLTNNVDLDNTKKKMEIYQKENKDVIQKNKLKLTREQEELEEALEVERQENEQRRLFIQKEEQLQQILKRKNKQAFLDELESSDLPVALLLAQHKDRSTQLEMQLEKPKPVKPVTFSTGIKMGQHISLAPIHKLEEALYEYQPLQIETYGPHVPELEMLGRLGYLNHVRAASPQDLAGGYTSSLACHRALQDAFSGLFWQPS

Row | SMILES | IC50 [1] [nM] | Ki [2] [µM] | kinact [2] [s⁻¹] | kinact/KI [2, 4] [M⁻¹ s⁻¹] | IC50 [3] [nM] | kinact/KI [2, 5] [M⁻¹ s⁻¹] | CDK7_A549 Wild-type CDK7 (pIC50) [1] | CDK7_A549 mutant hCDK7(pIC50) [3] | CDK7 (20 nM enz.) (kinact, s^−1) [2] [s⁻¹] | CDK7 (20 nM enz.) (kinact/KI, M^−1*s^−1) [2] [M⁻¹ s⁻¹] | CDK7 (20 nM enz.) (kobs/[I], M^−1*s^−1) [2] [M⁻¹ s⁻¹]
1 | C=CC(=O)N1CC(N2CCC(c3cc(Br)c4c(c3)Nc3nccc(C5CCOCC5)c3CO4)CC2)C1 [Compound 82] | 46.8 |  |  |  | 7940 | 1570 |  |  |  |  | 
2 | C=CC(=O)N1CCC(N2CC(c3cc(Cl)c4c(c3C)Nc3nccc(C5CCOCC5)c3CO4)C2)CC1 [Compound 86] | 1580 | 0.397 | 2.5e-05 | 63.1 | > 10000 |  |  |  |  |  | 
3 | C=CC(=O)N1CC(N2CCC(c3cc4c(c(C5CC5)c3)OCc3c(C5CCOCC5)ccnc3N4)CC2)C1 [Compound 87] | 81.3 |  |  |  | > 10000 | 1420 |  |  |  |  | 
4 | C=CC(=O)N1CC(N2CC(c3ccc4c(c3)Nc3nccc(N5CCOCC5)c3CO4)C2)C1 [Compound 88] | 162 |  |  |  | > 10000 | 1050 |  |  |  |  | 
5 | C=CC(=O)N1CC(N2CCC(c3cc(Cl)c4c(c3)Nc3nccc(N5CCOCC5)c3CO4)CC2)C1 [Compound 91] |  |  |  |  |  | 1740 | 7.42 | <5 |  |  | 
6 | C=CC(=O)N1CCC(N2CCC(c3ccc4c(c3)Nc3nccc(N5CCS(=O)(=NC)CC5)c3CO4)CC2)CC1 [Compound 95] | 288 | 0.48 | 4.87e-05 | 101 | > 10000 |  |  |  |  |  | 
7 | C=CC(=O)N1CCC(N2CC(c3ccc4c(c3)Nc3nccc(C5CCOCC5)c3CO4)C2)CC1 [Compound 96] | 123 | 0.184 |  |  | > 10000 |  |  |  | 4.701e-05 | 255.867 | 
8 | C=CC(=O)N1CC(N2CCC(c3cc(Cl)c4c(c3)Nc3nccc(C5CCOCC5)c3CO4)CC2)C1 [Compound 101] | 64.6 |  |  |  | > 10000 | 1110 |  |  |  |  | 
9 | C=CC(=O)N1CCC(N2CC(c3cc4c(c(C(F)(F)F)c3)OCc3c(-c5cnn(C)c5)ccnc3N4)C2)CC1 [Compound 102] | 40.7 | 0.0268 | 4.38e-05 | 1630 | 3550 |  |  |  |  |  | 
10 | C=CC(=O)N1CC(N2CCC(c3ccc4c(c3)Nc3nccc(N5CCOCC5)c3CO4)CC2)C1 [Compound 107] | 110 | 0.056 | 5.28e-05 | 943 | > 10000 |  |  |  |  |  | 
11 | C=CC(=O)N1CC(N2CC[C@H](c3ccc4c(c3)Nc3nccc(N5CCOCC5)c3CO4)[C@@H](F)C2)C1 [Compound 110] | 257 | 0.23 |  |  | > 10000 |  |  |  | 5.833e-05 | 253.792 | 
12 | C=CC(=O)N1CCC(N2CC(c3cc4c(c(C(F)(F)F)c3)OCc3c(N5CCOCC5)ccnc3N4)C2)CC1 [Compound 111] | 45.7 |  |  |  | 4170 | 622 |  |  |  |  | 
13 | C=CC(=O)N1CCC(N2CC(c3cc(F)c4c(c3)Nc3nccc(C5CCOCC5)c3CO4)C2)CC1 [Compound 112] | 155 | 0.0653 | 4.53e-05 | 693 | 8510 |  |  |  |  |  | 
14 | C=CC(=O)N1CCC(N2CCC(c3ccc4c(c3)Nc3nccc(N5CCS(=N)(=O)CC5)c3CO4)CC2)CC1 [Compound 113] | 380 | 0.39 | 6.16e-05 | 158 | > 10000 |  |  |  |  |  | 
15 | C=CC(=O)N1CCC(c2nc(C)c(-c3cc(C)c4c(c3)Nc3nccc(C5CCOCC5)c3CO4)c(C)n2)CC1 [Compound 116] | 398 | 0.293 | 5.05e-05 | 173 | > 10000 |  |  |  |  |  | 
16 | C#Cc1cc(C2CCN(C3CN(C(=O)C=C)C3)CC2)cc2c1OCc1c(C3CCOCC3)ccnc1N2 [Compound 118] | 70.8 |  |  |  | > 10000 | 1620 |  |  |  |  | 
17 | C=CC(=O)N1CC(N2CCC(c3cc(Cl)c4c(c3)Nc3nccc(C5CCOCC5)c3CO4)CC2)C1 [Compound 119] |  |  |  |  |  |  | 7.42 | <5 |  |  | 1611.37
18 | C#Cc1cc2c(cc1C1CCN(C3CN(C(=O)C=C)C3)CC1)Nc1nccc(C3CCOCC3)c1CO2 [Compound 120] | 331 | 0.0783 | 8.13e-05 | 1040 | > 10000 |  |  |  |  |  | 
19 | C=CC(=O)N1CC(N2CCC(c3ccc4c(c3)Nc3nccc(N5CCOCC5)c3CO4)CC2)C1 [Compound 121] |  | 0.0963 |  |  |  |  | 6.9 | <5 | 9.753e-05 | 1012.54 | 
20 | C#CCCN(C)C/C=C/C(=O)N1CC(N2CCC(c3cc(C)c4c(c3)Nc3nccc(N5CCOCC5)c3CO4)CC2)C1 [Compound 122] | 69.2 |  |  |  | > 10000 | 1660 |  |  |  |  | 
21 | C=CC(=O)N1CC(N2CCC(c3ccc4c(c3)Nc3nccc(C5CCOCC5)c3CO4)CC2)C1 [Compound 123] |  | 0.0244 | 3.4e-05 | 1390 |  |  | 7.15 | <5 |  |  | 
22 | C#CCCN(C)C/C=C/C(=O)N1CC(N2CCC(c3cc(C)c4c(c3)Nc3nccc(C5CCOCC5)c3CO4)CC2)C1 [Compound 124] | 97.7 |  |  |  | > 10000 | 1550 |  |  |  |  | 
23 | C=CC(=O)N1CC(N2CCC(c3cc(C#N)c4c(c3)Nc3nccc(C5CCOCC5)c3CO4)CC2)C1 [Compound 125] | 27.5 |  |  |  | 7240 | 1230 |  |  |  |  | 

The remaining lines, values ahead:

Row | IC50 [1] [nM] | Ki [2] [µM] | kinact [2] [s⁻¹] | kinact/KI [2, 4] [M⁻¹ s⁻¹] | IC50 [3] [nM] | kinact/KI [2, 5] [M⁻¹ s⁻¹] | CDK7_A549 Wild-type CDK7 (pIC50) [1] | CDK7_A549 mutant hCDK7(pIC50) [3] | CDK7 (20 nM enz.) (kinact, s^−1) [2] [s⁻¹] | CDK7 (20 nM enz.) (kinact/KI, M^−1*s^−1) [2] [M⁻¹ s⁻¹] | CDK7 (20 nM enz.) (kobs/[I], M^−1*s^−1) [2] [M⁻¹ s⁻¹] | SMILES
24 | 417 | 0.067 | 4.29e-05 | 640 | > 10000 |  |  |  |  |  |  | C=CC(=O)N1CC(N2CCC(c3cc(C)c4c(c3)Nc3nccc(C5=CCS(=O)(=O)CC5)c3CO4)CC2)C1 [Compound 81]
25 | 575 | 0.191 | 6.74e-05 | 354 | > 10000 |  |  |  |  |  |  | C=CC(=O)N1CC(N2CCC(c3ccc4c(c3)Nc3nccc(N5CCS(=O)(=NC)CC5)c3CO4)CC2)C1 [Compound 84]
26 | 81.3 |  |  |  | 4370 | 608 |  |  |  |  |  | C=CC(=O)N1CCC(N2CC(c3cc(Cl)c4c(c3)Nc3nccc(-c5cnn(C)c5)c3CO4)C2)CC1 [Compound 85]
27 | > 10000 | 3.37 | 3.79e-05 | 11.2 | > 10000 |  |  |  |  |  |  | C=CC(=O)N=S1(=O)CCN(c2ccnc3c2COc2ccc(C4CCN(C5CN(C(=O)C=C)C5)CC4)cc2N3)CC1 [Compound 94]
28 | 44.7 |  |  |  | > 10000 | 1440 |  |  |  |  |  | C=CC(=O)N1CC(N2CCC(c3cc(C)c4c(c3)Nc3nccc(-c5cnn(C)c5)c3CO4)CC2)C1 [Compound 99]
29 | 51.3 |  |  |  | 3310 |  |  |  | 5.051e-05 | 1179.87 |  | C=CC(=O)N1CCC(N2CC(c3cc(C)c4c(c3)Nc3nccc(-c5cnn(C)c5)c3CO4)C2)CC1 [Compound 100]
30 | 126 | 0.0424 | 8.56e-05 | 2020 | > 10000 |  |  |  |  |  |  | C=CC(=O)N1CC(N2CCC(c3cc(Cl)c4c(c3)Nc3nccc(N5CCS(=O)(=O)CC5)c3CO4)CC2)C1 [Compound 103]
31 | 16.2 | 0.0256 | 5.8e-05 | 2260 | 2570 |  |  |  |  |  |  | C=CC(=O)N1CCC(N2CCC(c3cc(C)c4c(c3)Nc3nccc(-c5cnn(C)c5)c3CO4)CC2)CC1 [Compound 105]
32 | 933 | 0.57 | 5.75e-05 | 101 | > 10000 |  |  |  |  |  |  | C=CC(=O)N1CC(c2ncc(-c3cc(C)c4c(c3)Nc3nccc(N5CCS(=O)(=O)CC5)c3CO4)cn2)C1 [Compound 108]
33 | 50.1 | 0.0779 | 4.23e-05 | 543 | > 10000 |  |  |  |  |  |  | C=CC(=O)N1CC(c2ncc(-c3cc(C)c4c(c3)Nc3nccc(C5CCOCC5)c3CO4)cn2)C1 [Compound 114]
34 |  | 0.0486 |  |  |  |  | 6.66 | <5 | 5.802e-05 | 1193.86 |  | C=CC(=O)N1CC(N2CCC(c3cc(Cl)c4c(c3)Nc3nccc(N5CCS(=O)(=O)CC5)c3CO4)CC2)C1 [Compound 115]
35 | 126 | 0.0512 | 4.56e-05 | 891 | 7760 |  |  |  |  |  |  | C=CC(=O)N1CCC(N2CC(c3cc(F)c4c(c3)Nc3nccc(-c5cnn(C)c5)c3CO4)C2)CC1 [Compound 117]
36 | 47.9 |  |  |  | > 10000 |  |  |  |  |  | 875.576 | C=CC(=O)N1CC(N2CCC(c3cc(F)c4c(c3)Nc3nccc(-c5cnn(C)c5)c3CO4)CC2)C1 [Compound 126]
